# Data published in patent US10561681B2, “Antimetastatic 2H-selenopheno[3,2-h]chromenes, synthesis thereof, and methods of using same agents” (Latvian Institute of Organic Synthesis, priority 2016, dated 2020).
# Values joined by “and” are separate entries in the source; they are usually repeats but may differ in a detail not shown here. Equal values may be shown once. Read-outs that look alike come from different tables or passages of the source. Marks after values point to notes of the source that are not given here.
# Assays:
# [1] = test system: HepG2 (human hepatocellular carcinoma); test: In vitro cytotoxicity, MTT test; type: cell-based; settings: read-out: Cytotoxicity IC50, HepG2
# Protocol: (§1) Anticancer activity of selenopheno[h]chromenes was tested in vitro using cytotoxicity assay. […] About 2-9·10^4 cells/mL (depending on line nature) were placed in 96-well plates immediately after compounds were added to the wells. Untreated cells were used as a control. The plates were incubated for 72 h, 37° C., 5% CO2. The number of surviving cells was determined using 3-(4,5-dimethylthiazol-2-yl)-2,5-diphenyltetrazolinium bromide (MTT). MTT-test: after incubating culture medium was removed and 200 μL fresh medium with 10 mM HEPES was added in each well of the plate, than 20 μL MTT (2 mg/mL in HBSS) was added. After incubation (3 hr, 37° C., 5% CO2), the medium with MTT was removed and 200 μL DMSO were added at once to each sample. The samples were tested at 540 nm on Anthos HT II photometer.
# [2] = test system: SH-SY5Y (human neuroblastoma); test: In vitro cytotoxicity, MTT test; type: cell-based; settings: Homo sapiens, SH-SY5Y, 72 h, read-out: Cytotoxicity IC50, SHSY5Y
# Protocol: as §1
# [3] = test system: A549 (human lung carcinoma); test: In vitro cytotoxicity, MTT test; type: cell-based; settings: Homo sapiens, A549, 72 h, read-out: Cytotoxicity IC50, A549
# Protocol: as §1
# MG-22A (mouse hepatoma) = test: In vitro cytotoxicity, MTT test; type: cell-based; settings: 72 h, read-out: Cytotoxicity IC50, MG-22A
# Protocol: as §1
# [4] = test system: MDA-MB-435s (human melanoma); test: In vitro cytotoxicity, MTT test; type: cell-based; settings: 72 h, read-out: Cytotoxicity IC50, MDA-MB-435s
# Protocol: as §1
# [5] = test system: MES-SA (human uterus sarcoma); test: In vitro cytotoxicity, MTT test; type: cell-based; settings: 72 h, read-out: Cytotoxicity IC50, MES-SA
# Protocol: as §1
# [6] = test system: HT-1080 (human fibrosarcoma); test: In vitro cytotoxicity, MTT test; type: cell-based; settings: read-out: Cytotoxicity IC50, HT-1080
# Protocol: as §1
# [7] = test system: MCF-7 (human breast adenocarcinoma, estrogen-positive); test: In vitro cytotoxicity, MTT test; type: cell-based; settings: read-out: Cytotoxicity IC50, MCF-7
# Protocol: as §1
# CCL-8 (mouse sarcoma) = test: In vitro cytotoxicity, MTT test; type: cell-based; settings: 72 h, read-out: Cytotoxicity IC50, CCL-8
# Protocol: as §1
# malignant tumor cells = test: In vitro cytotoxicity on monolayer tumor cell lines (panel, summary in words); type: cell-based; settings: summary of Table 1
# Protocol: Anticancer activity of selenopheno[h]chromenes was tested in vitro using cytotoxicity assay. Thus, monolayer tumor cell lines MDA-MB-435s (human melanoma), MCF-7 (human breast adenocarcinoma, estrogen-positive), MES-SA (human uterus sarcoma), HT-1080 (human fibrosarcoma), A549 (human lung carcinoma), SH-SY5Y (human neuroblastoma), CCL-8 (mouse sarcoma), MG-22A (mouse hepatoma), and HepG2 (human hepatocellular carcinoma) were cultured in standard medium DMEM (Dulbecco's modified Eagle's medium) (“Sigma”) supplemented with 10% fetal bovine serum (“Sigma”). About 2-9·10^4 cells/mL (depending on line nature) were placed in 96-well plates immediately after compounds were added to the wells. Untreated cells were used as a control. The plates were incubated for 72 h, 37° C., 5% CO2. The number of surviving cells was determined using 3-(4,5-dimethylthiazol-2-yl)-2,5-diphenyltetrazolinium bromide (MTT). MTT-test: after incubating culture medium was removed and 200 μL fresh medium with 10 mM HEPES was added in each well of the plate, than 20 μL MTT (2 mg/mL in HBSS) was added. After incubation (3 hr, 37° C., 5% CO2), the medium with MTT was removed and 200 μL DMSO were added at once to each sample. The samples were tested at 540 nm on Anthos HT II photometer.
# [8] = Basal cytotoxicity test, Neutral Red Uptake (NRU) assay; type: cell-based; settings: for LD50 at 24 h: mouse, po, acute oral LD50 calculated from 3T3 NRU IC50 by regression formula, read-out: Basal cytotoxicity Estimated* LD50; for IC50 at 24 h: normal mouse embryo fibroblasts, read-out: Cytotoxicity IC50, 3T3
# Protocol: In parallel, the borderline concentration relevant to the highest tolerated dose has been determined for each compound using the NIH 3T3 (mouse embryo fibroblasts) cell line and the basal cytotoxicity obtained has then been used to predict the starting doses for in vivo acute oral LD50 values in rodents.
# the Neutral Red Uptake (NRU) assay was performed according to the standard protocol of Stokes modified by the NICEATM-ECVAM validation study. The NRU cytotoxicity assay procedure is based on the ability of viable cells to incorporate and bind Neutral Red, a supravitally dye. Balb/c 3T3 (Mouse Swiss Albino embryo fibroblast) cells (9000 cells/well) were placed into 96-well plates for 24 h in Dulbecco's modified Eagle's (DMEM) medium containing 5% fetal bovine serum. The cells were then exposed to the test compounds over a range of […] concentrations (1000, 316, 100, 31, 10, 3, 1 μg/ml) for 24 h. Untreated cells were used as a control. After 24 h, the medium was removed from all plates. Then, 250 μL of Neutral Red solution were added (0.05 mg/mL NR in DMEM 24 h pre-incubated at 37° C. and then filtered before use through 0.22-μm syringe filter). Plates were incubated for 3 h and then cells were washed three times with PBS. The dye within viable cells was released by extraction with a mixture of acetic acid, ethanol and water (1:50:49). Absorbance of Neutral Red was measured using a spectrophotometer multiplate reader (TECAN, Infinite M1000) at 540 nm. The percentage of living cells was calculated using the formula: OD (treated cells)*100/OD (control cells). The IC50 values were calculated using the programme Graph Pad Prism® 3.0.
# Data from the in vitro tests were used for estimating the starting dose for acute oral systemic toxicity tests in rodents. […] The value is recalculated to mg/kg and compounds are evaluated in accordance with four toxicity categories: category 1: LD50≤5 mg/kg (highly toxic); category 2: 5<LD50≤50 mg/kg (moderately toxic); category 3: 50<LD50≤300 mg/kg (slightly toxic); category 4: 300<LD50≤2 000 mg/kg (practically non-toxic).
# 4T1 carcinoma cells = test: 4T1 model of lung metastasis (tail vein) in Balb/c mice; type: in vivo, mouse; settings: for Spleen weight increase: 4T1 i.v., control with tumor +147%; for % of the total area occupied by metastases, % (control = 100) / % of the total area occupied by metastases, Mean ± SD: s.c., days 1, 4, 7, 9, 11, 14
# Protocol: Compounds were administered s.c. at 1, 4, 7, 9, 11 and 14th days. 4T1 cells (10,000/0.1 ml PBS) were injected i.v. into syngeneic mice. The metastasis at day 16 are shown for each mouse, and averages are provided for illustration.
# Balb/c mice were injected with 100,000 4T1 […] cancer cells into the tail vein and treatment started 24 hr later with subcutaneous (s.c.), intraperitoneal (i.p.) injections or oral administration (p.o.) of compounds according to the following scheme: 1, 4, 7, 9, 11 and 14th days in dose 20 or 40 mg/kg. Compounds were dissolved in DMSO and the solution were diluted by water (DMSO final concentration <1%). Mice in the control group were similarly given doses of 0.1 mL of water with DMSO. Twenty-one days later, all mice were anesthetized with ketamine/xylazine and euthanized, the mice were sacrificed spleens were excised from the mice and weighed. In each experiment, mice were weighed twice weekly.
# (Lewis et al, Cancer Res, 2005, 65) Pulmonary metastases were enumerated by intra-tracheal injection of India ink (15% India Ink, 85% water, 3 drops NH4OH/100 ml). India ink injected lungs were washed in Feket's solution (300 ml 70% EtOH, 30 ml 37% formaldehyde, 5 ml glacial acetic acid) and then placed fresh Feket's solution overnight. […] White tumor nodules against a black lung background were measured.
Compound,"IC50 ([1]; HepG2, 72 h) [µM]",IC50 [2] [µM],IC50 [3] [µM],IC50 (MG-22A (mouse hepatoma)) [µM],IC50 [4] [µM],IC50 [5] [µM],"IC50 ([6]; HT-1080, 72 h) [µM]","IC50 ([7]; MCF7, 72 h) [µM]",IC50 (CCL-8 (mouse sarcoma)) [µM],LD50 at 24 h [8],IC50 at 24 h [8] [µM],"IC50 ([1]; HepG2, MTT, 72 h) [µM]",IC50 ([2]; MTT) [µM],"IC50 ([3]; MTT, 72 h) [µM]",IC50 (MG-22A (mouse hepatoma); MTT) [µM],IC50 ([4]; MTT) [µM],IC50 ([5]; MTT) [µM],"IC50 ([6]; HT-1080, MTT, 72 h) [µM]","IC50 ([7]; MCF7, MTT, 72 h) [µM]",IC50 (CCL-8 (mouse sarcoma); MTT) [µM],further results
"Cl.O=C(O)c1cc2ccc3c(Br)c(CN4CCOCC4)[se]c3c2oc1=O [Compound I-14, 7-Bromo-2-oxo-8-(morpholin-1-ylmethyl)-2H-selenopheno[3,2-h]chromene-3-carboxylic acid hydrochloride]",106 ± 9,35 ± 9,51 ± 8,59 ± 2,156 ± 9,65 ± 6,100 ± 6,95 ± 9,79 ± 9,1320 mg/kg and 2600 µmol/kg,43 ± 2,,,,,,,,,,Cytotoxicity on cancer cell lines (malignant tumor cells): remained cytotoxicity on cancer cell lines
"CN1CCN(Cc2[se]c3c(ccc4cc(C(=O)O)c(=O)oc43)c2Br)CC1.Cl [Compound I-15, 7-Bromo-8-/(4-methylpiperazin-1-yl/methyl)-2-oxo-2H-selenopheno[3,2-h]chromene-3-carboxylic acid hydrochloride]",> 192,> 192,> 192,186 ± 7,> 122,> 117,> 192,> 192,> 122,3200 µmol/kg and 1670 mg/kg,192 ± 7,,,,,,,,,,"Spleen weight increase (4T1 carcinoma cells; dose 20 mg/kg): 55%; Spleen weight increase (4T1 carcinoma cells; dose 40 mg/kg): 14%; Prevention of formation of 4T1 carcinoma lung metastasis (4T1 carcinoma cells; five mice per group): 98%; % of the total area occupied by metastases, % (control = 100) (4T1 carcinoma cells; 20 mg/kg): 4* %; % of the total area occupied by metastases, Mean ± SD (4T1 carcinoma cells; 20 mg/kg, control 50 ± 33): 2 ± 2%; % of the total area occupied by metastases, % (control = 100) (4T1 carcinoma cells; 40 mg/kg): 1* %; % of the total area occupied by metastases, Mean ± SD (4T1 carcinoma cells; 40 mg/kg): 0 ± 1%; Cytotoxicity on cancer cell lines (malignant tumor cells): low toxic to the cancer cell lines"
"O=C(c1cc2ccc3c(Br)c(C4=CCCCC4)[se]c3c2oc1=O)N1CCCCC1 [Compound I-19, 7-Bromo-8-(cyclohex-1-en-1-yl)-3-(piperidine-1-carbonyl)-2H-selenopheno[3,2-h]chromen-2-one]",,,,,,,,,,1000 µmol/kg and 500 mg/kg,161 ± 23,103 ± 15,> 117,100 ± 3,41 ± 2,51 ± 8,105 ± 4,50 ± 5,125 ± 8,> 193,
"O=C(c1cc2ccc3c(Br)c(C4=CCCCC4)[se]c3c2oc1=O)N1CCOCC1 [Compound I-20, 7-Bromo-8-(cyclohex-1-en-1-yl)-3-(morpholine-1-carbonyl)-2H-selenopheno[3,2-h]chromen-2-one]",,,,,,,,,,3000 µmol/kg and 1600 mg/kg,> 192,63 ± 6,> 117,38 ± 5,117 ± 7,13 ± 1,61 ± 4,92 ± 12,81 ± 7,126 ± 4,
"COCCN(CCOC)C(=O)c1cc2ccc3c(Br)c(C4=CCCCC4)[se]c3c2oc1=O [Compound I-21, 7-Bromo-8-(cyclohex-1-en-1-yl)-N,N-bis(2-methoxyethyl)-2-oxo-2H-selenopheno[3,2-h]chromene-3-carboxamide]",,,,,,,,,,700 µmol/kg and 384 mg/kg,131 ± 7,51 ± 7,139 ± 6,61 ± 6,46 ± 6,76 ± 4,73 ± 3,51 ± 1,92 ± 12,100 ± 8,
"COC1(c2[se]c3c(ccc4cc(C(=O)N5CCOCC5)c(=O)oc43)c2Br)CCCCC1 [Compound I-22, 7-Bromo-8-(1-methoxycyclohexyl)-3-(morpholine-4-carbonyl)-2H-selenopheno[3,2-h]chromen-2-one]",,,,,,,,,,300 µmol/kg and 195 mg/kg,47 ± 4,47 ± 2,98 ± 3,43 ± 4,37 ± 1,43 ± 3,41 ± 2,38 ± 2,18 ± 2,39 ± 3,
